Laboratory results reported in PubChem BioAssay AID2060600 (Molecular Pharmacology Branch, DTP, NCI, 2025).
Values joined by “and” are separate entries in the source; they are usually repeats but may differ in a detail not shown here. Equal entries are not always repeated. Each block holds one compound with its values, some of them ahead of it.

System: 996289-038-R-J1-PDC complex spheroid viability
Experiment: Anticancer human tumor 996289-038-R-J1-PDC patient-derived colon adenocarcinoma cell line growth inhibition [CLK]
Details: for viability, T/C: stronger effect = lower value
From the text: A high-throughput screen of multi-cell type tumor spheroids was designed to identify active combinations of […] and targeted small molecules. Complex spheroids include a stromal component modeled by human endothelial cells (HUVEC) and fibroblasts modeled by human mesenchymal stem cells (MSCs). The concentration ranges selected for each drug and investigational agent were based upon clinically achievable concentrations if the clinical Cmax of the agent was known.
Compounds. The drugs and investigational agents: cirtuvivint (SM08502; NSC835563), CC-671 (NSC850746), vemurafenib (NSC761431), tapotoclax (NSC804041), sotorasib (NSC818433), adagrasib (NSC831453), MRTX-1133 (NSC836407), BAY2416964 (NSC825713), copanlisib (NSC816437), inavolisib (NSC800729), abemaciclib (NSC768073), osimertinib (NSC779217), entinostat (NSC756642), eltanexor (KPT-8602, NSC794443), venetoclax (NSC766270), ceralasertib (NSC777638), bortezomib (NSC756655), olaparib (NSC753686), talazoparib (NSC767125), alisertib (NSC759677), peposertib (NSC802822), gemcitabine (NSC613327), 5-fluorouracil (NSC19893), SN-38 (NSC673596), oxaliplatin (NSC266046), paclitaxel (NSC125973), and doxorubicin (NSC123127), were obtained from the National Cancer Institute (NCI) Developmental Therapeutics Program Chemical Repository. The FDA-approved anticancer drug set is available from the Developmental Therapeutics Program at https://dtp.cancer.gov/organization/dscb/obtaining/available plates.htm. […] The stock solutions were prepared in dimethyl sulfoxide (DMSO, Sigma-Aldrich, St. Louis, MO, cat. D2650), except for the platinum complexes which were prepared in saline (Quality Biological, Gaithersburg, MD, cat. 114-055-101), at 800-fold the tested concentration and stored at -70 degrees C prior to their use. All drugs and investigational agents were tested over a range starting from a high concentration at or near the clinical Cmax and decreasing in half-log increments. If the clinical Cmax for an agent had not been determined, the highest concentration tested was 10 microM.
Cell Culture. All cells were maintained in an incubator at 37 degrees C and 5% CO2 with 95% humidity. The PDC lines were cultured according to standard operating procedures established by the NCI PDMR. Briefly, all PDCs were thawed and cultured in Matrigel-coated flasks prepared with a working solution of 1X Ham's F-12 nutrient mix, without supplementation (Invitrogen, Waltham, MA, cat. 11765054), 100 U/mL penicillin-streptomycin (Invitrogen, cat. 15140122), and 2.5% Matrigel (Corning Inc., Corning, NY, cat. 354248) for the first three passages. The 947758-054-R-J2-PDC line was cultured in 6B/Colon 1A media, which includes advanced DMEM/F-12 (Thermo Fisher Scientific, cat. 12634028), 10 mM HEPES (Thermo Fisher Scientific, cat. 15630080), 1X GlutaMAX supplement (Thermo Fisher Scientific, cat. 35050061), 0.1 mg/mL primocin (InvivoGen, cat. ant-pm-2), 10% defined fetal bovine serum, heat inactivated (HyClone Laboratories Inc., cat. SH30070.03HI), 1.25 mM N-Acetyl-L-cysteine (Sigma-Aldrich, cat. A9165), 10 mM nicotinamide (Sigma-Aldrich, cat. N0636), 1X B-27 supplement (Thermo Fisher Scientific, cat. 17504044), 1X N-2 supplement (Thermo Fisher Scientific, cat. 17502048), and 10 microM Y-27632 dihydrochloride (Tocris Bioscience, cat. 1254). The 876862-298-R-J1-PDC was cultured in 6E media, which includes all 6B/Colon 1A media components plus 50% L-WRN conditioned media (ATCC, cat. CRL-3276), 50 ng/mL recombinant human EGF recombinant protein (hEGF; Thermo Fisher Scientific, cat. PHG0311), 10 ng/mL recombinant human fibroblast growth factor 10 (hGFG-10; PeproTech, cat. 100-26), 1 ng/mL recombinant human fibroblast growth factor 2 (hFGF-2; PeproTech, cat. 100-18B), and 1 µM prostaglandin E2 (PGE2; Tocris, cat. 2296). The 227483-062-R1-J1-PDC line was cultured in Panc media, containing all 6E components except hFGF-2, with the addition of 500 nM SB-431542 (Selleckchem, cat. S1067) and 10 nM gastrin (Tocris, cat. 3006). […]

[1] = curve of first compound, second compound 0.0316 µM
[2] = curve of first compound, second compound 0.1 µM
[3] = curve of first compound, second compound 0.316 µM
[4] = curve of first compound, second compound 1 µM
[5] = curve of first compound, second compound 3.16 µM
[6] = curve of first compound, second compound 10 µM
[7] = second compound 0.0316 µM, first compound 0.0316 µM
[8] = second compound 0.0316 µM, first compound 0.1 µM
[9] = second compound 0.0316 µM, first compound 0.316 µM
[10] = second compound 0.0316 µM, first compound 1 µM
[11] = second compound 0.0316 µM, first compound 3.16 µM
[12] = second compound 0.0316 µM, first compound 10 µM
[13] = second compound 0.1 µM, first compound 0.0316 µM
[14] = second compound 0.1 µM, first compound 0.1 µM
[15] = second compound 0.1 µM, first compound 0.316 µM
[16] = second compound 0.1 µM, first compound 1 µM
[17] = second compound 0.1 µM, first compound 3.16 µM
[18] = second compound 0.1 µM, first compound 10 µM
[19] = second compound 0.316 µM, first compound 0.0316 µM
[20] = second compound 0.316 µM, first compound 0.1 µM
[21] = second compound 0.316 µM, first compound 0.316 µM
[22] = second compound 0.316 µM, first compound 1 µM
[23] = second compound 0.316 µM, first compound 3.16 µM
[24] = second compound 0.316 µM, first compound 10 µM
[25] = second compound 1 µM, first compound 0.0316 µM
[26] = second compound 1 µM, first compound 0.1 µM
[27] = second compound 1 µM, first compound 0.316 µM
[28] = second compound 1 µM, first compound 1 µM
[29] = second compound 1 µM, first compound 3.16 µM
[30] = second compound 1 µM, first compound 10 µM
[31] = second compound 3.16 µM, first compound 0.0316 µM
[32] = second compound 3.16 µM, first compound 0.1 µM
[33] = second compound 3.16 µM, first compound 0.316 µM
[34] = second compound 3.16 µM, first compound 1 µM
[35] = second compound 3.16 µM, first compound 3.16 µM
[36] = second compound 3.16 µM, first compound 10 µM
[37] = second compound 10 µM, first compound 0.0316 µM
[38] = second compound 10 µM, first compound 0.1 µM
[39] = second compound 10 µM, first compound 0.316 µM
[40] = second compound 10 µM, first compound 1 µM
[41] = second compound 10 µM, first compound 3.16 µM
[42] = second compound 10 µM, first compound 10 µM
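Note: spheroids exposed to the agents for 7 days before readout.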

IC50 [1]: > 10000 nM | IC50 [2]: > 10000 nM | IC50 [3]: > 10000 nM | IC50 [4]: > 10000 nM | IC50 [5]: > 10000 nM | IC50 [6]: > 10000 nM
Structure (SMILES): CC(=O)O[C@H]1C(=O)[C@@]2(C)[C@H]([C@H](OC(=O)c3ccccc3)[C@]3(O)C[C@H](OC(=O)[C@H](O)[C@@H](NC(=O)c4ccccc4)c4ccccc4)C(C)=C1C3(C)C)[C@]1(OC(C)=O)CO[C@@H]1C[C@@H]2O + CNC(=O)c1ccc(Nc2nc(OC3CCCC3)c3c(-c4ccc5nc(C)oc5c4)c[nH]c3n2)c(OC)c1
viability, T/C [7]: 109% | viability, T/C [8]: 103% | viability, T/C [9]: 79.9% | viability, T/C [10]: 70.3% | viability, T/C [11]: 67.4% | viability, T/C [12]: 64.6% | viability, T/C [13]: 110% | viability, T/C [14]: 96% | viability, T/C [15]: 80% | viability, T/C [16]: 79.2% | viability, T/C [17]: 74.8% | viability, T/C [18]: 65.4% | viability, T/C [19]: 68.6% | viability, T/C [20]: 70.3% | viability, T/C [21]: 65.6% | viability, T/C [22]: 66.3% | viability, T/C [23]: 69.2% | viability, T/C [24]: 73.3% | viability, T/C [25]: 63.2% | viability, T/C [26]: 59% | viability, T/C [27]: 57.5% | viability, T/C [28]: 53.5% | viability, T/C [29]: 62.9% | viability, T/C [30]: 61.8% | viability, T/C [31]: 59.6% | viability, T/C [32]: 55% | viability, T/C [33]: 54% | viability, T/C [34]: 54.3% | viability, T/C [35]: 59% | viability, T/C [36]: 65.2% | viability, T/C [37]: 56.7% | viability, T/C [38]: 53.5% | viability, T/C [39]: 55.2% | viability, T/C [40]: 53.8% | viability, T/C [41]: 59.6% | viability, T/C [42]: 53.7%

IC50 [1]: 4460 nM | IC50 [2]: 2150 nM | IC50 [3]: 983 nM | IC50 [4]: 173 nM | IC50 [5]: < 31.6 nM | IC50 [6]: 66.9 nM
Structure (SMILES): COc1cccc2c1C(=O)c1c(O)c3c(c(O)c1C2=O)CC(O)(C(=O)CO)CC3OC1CC(N)C(O)C(C)O1 (stereo not drawn) + CNC(=O)c1ccc(Nc2nc(OC3CCCC3)c3c(-c4ccc5nc(C)oc5c4)c[nH]c3n2)c(OC)c1
viability, T/C [7]: 119% | viability, T/C [8]: 98.7% | viability, T/C [9]: 87.5% | viability, T/C [10]: 68.8% | viability, T/C [11]: 59.9% | viability, T/C [12]: 36% | viability, T/C [13]: 104% | viability, T/C [14]: 110% | viability, T/C [15]: 79.7% | viability, T/C [16]: 59.9% | viability, T/C [17]: 50% | viability, T/C [18]: 28.7% | viability, T/C [19]: 75.3% | viability, T/C [20]: 73.4% | viability, T/C [21]: 63.1% | viability, T/C [22]: 51% | viability, T/C [23]: 31% | viability, T/C [24]: 18.5% | viability, T/C [25]: 64.8% | viability, T/C [26]: 56.6% | viability, T/C [27]: 42.2% | viability, T/C [28]: 28.1% | viability, T/C [29]: 14.3% | viability, T/C [30]: 10.3% | viability, T/C [31]: 49.3% | viability, T/C [32]: 48.2% | viability, T/C [33]: 38.5% | viability, T/C [34]: 19.5% | viability, T/C [35]: 10.3% | viability, T/C [36]: 7.76% | viability, T/C [37]: 53.1% | viability, T/C [38]: 47.6% | viability, T/C [39]: 36.6% | viability, T/C [40]: 18.1% | viability, T/C [41]: 8.69% | viability, T/C [42]: 7.86%

IC50 (curve of compound): > 300 nM
Structure (SMILES): C=CC(=O)Nc1cc(Nc2nccc(-c3cn(C)c4ccccc34)n2)c(OC)cc1N(C)CCN(C)C
viability, T/C (compound 0.000949 µM): 99.1% and 105% | viability, T/C (compound 0.003 µM): 106% and 96.1% | viability, T/C (compound 0.00949 µM): 101% and 98.5% | viability, T/C (compound 0.03 µM): 92.6% and 93.1% | viability, T/C (compound 0.0949 µM): 93% and 92% | viability, T/C (compound 0.3 µM): 81.2% and 69.9%

Structure (SMILES): CC(Nc1ccc2c(c1)OCCn1cc(N3C(=O)OCC3C(F)F)nc1-2)C(N)=O (stereo not drawn) + CN1CCN(c2cc(C(=O)Nc3cc4cc(-c5cnn(C)c5)ccc4cn3)ccn2)CC1
IC50 [1]: 3170 nM | IC50 [2]: 1100 nM | IC50 [3]: 158 nM | IC50 [4]: < 31.6 nM | IC50 [5]: < 31.6 nM | IC50 [6]: < 31.6 nM | viability, T/C [7]: 88.1% | viability, T/C [8]: 84.9% | viability, T/C [9]: 71.8% | viability, T/C [10]: 60.5% | viability, T/C [11]: 52.2% | viability, T/C [12]: 37.2% | viability, T/C [13]: 91.5% | viability, T/C [14]: 77.3% | viability, T/C [15]: 62.1% | viability, T/C [16]: 50.6% | viability, T/C [17]: 41.6% | viability, T/C [18]: 31.2% | viability, T/C [19]: 62% | viability, T/C [20]: 50.9% | viability, T/C [21]: 46% | viability, T/C [22]: 35.6% | viability, T/C [23]: 35.9% | viability, T/C [24]: 21.9% | viability, T/C [25]: 2.6% | viability, T/C [26]: 2.53% | viability, T/C [27]: 2.23% | viability, T/C [28]: 1.58% | viability, T/C [29]: 1.47% | viability, T/C [30]: 1.4% | viability, T/C [31]: 3.59% | viability, T/C [32]: 0.97% | viability, T/C [33]: 1.63% | viability, T/C [34]: 1.51% | viability, T/C [35]: 1.33% | viability, T/C [36]: 1.96% | viability, T/C [37]: 1.51% | viability, T/C [38]: 0.78% | viability, T/C [39]: 1.23% | viability, T/C [40]: 0.65% | viability, T/C [41]: 0.6% | viability, T/C [42]: 0.47%
